{
  "source": "patent US7449585B2",
  "about": "“Indazol-3-ones and analogues and derivatives thereof which modulate the function of the vanilloid-1 receptor (VR1)” (Merck Sharp & Dohme Ltd., priority 2003, dated 2008)",
  "origin": "cited, not measured here",
  "target": "VR1 (Rattus norvegicus, UniProt O35433)",
  "sequence (O35433 whole entry)": "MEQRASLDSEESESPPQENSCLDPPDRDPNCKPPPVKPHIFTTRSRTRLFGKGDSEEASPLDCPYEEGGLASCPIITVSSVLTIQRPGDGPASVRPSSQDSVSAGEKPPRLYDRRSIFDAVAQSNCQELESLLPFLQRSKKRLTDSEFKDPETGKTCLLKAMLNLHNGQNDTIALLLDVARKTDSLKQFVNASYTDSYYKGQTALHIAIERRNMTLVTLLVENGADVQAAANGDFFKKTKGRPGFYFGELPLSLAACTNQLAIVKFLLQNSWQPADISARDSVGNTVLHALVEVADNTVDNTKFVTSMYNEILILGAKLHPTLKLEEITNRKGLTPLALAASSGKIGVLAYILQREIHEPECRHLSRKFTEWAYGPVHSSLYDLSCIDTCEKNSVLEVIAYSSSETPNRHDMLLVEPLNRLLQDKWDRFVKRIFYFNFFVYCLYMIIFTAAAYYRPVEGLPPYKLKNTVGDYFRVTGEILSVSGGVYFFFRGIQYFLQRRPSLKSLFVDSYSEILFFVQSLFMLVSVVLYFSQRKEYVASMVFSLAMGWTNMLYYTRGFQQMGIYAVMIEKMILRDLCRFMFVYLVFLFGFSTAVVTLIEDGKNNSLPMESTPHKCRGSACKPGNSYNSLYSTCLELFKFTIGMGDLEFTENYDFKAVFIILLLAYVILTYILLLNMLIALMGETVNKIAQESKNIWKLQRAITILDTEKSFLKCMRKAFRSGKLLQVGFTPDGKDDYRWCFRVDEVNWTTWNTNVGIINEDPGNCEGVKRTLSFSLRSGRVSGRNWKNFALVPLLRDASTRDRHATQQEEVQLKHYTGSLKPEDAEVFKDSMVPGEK",
  "settings": "literature (Wahl et al., Mol. Pharmacol, 59:9, 2001)",
  "data": [
    {"smiles": "C=C(C)[C@]12C[C@@H](C)[C@@]34O[C@](Cc5ccccc5)(O[C@@H]1[C@@H]3C=C(COC(=O)Cc1cc(I)c(O)c(OC)c1)C[C@]1(O)C(=O)C(C)=C[C@@H]41)O2", "note": "[Iodo-resiniferatoxin]", "values": [
      {"measurement": "VR1 antagonist potency (in words)", "value": "nanomolar antagonist"}
    ]}
  ]
}
